Assay results reported in publication PMC10266451, “SKF96365 modulates activity of CatSper channels in human sperm” (Molecular Human Reproduction, 2023).

What was measured:
Format in all cases: cell-based
[1] = target: T1, CatSper (cation channel of sperm) (Homo sapiens, UniProt Q7RTX7+Q86XQ3+Q8NEC5+Q96P56); assay: whole-cell patch clamp of human sperm, Cs+ CatSper currents; conditions: activation within 30 s, followed by secondary block; divalent-free Cs+ solutions, ramps -80 to 80 mV
T1 construct: gene CATSPER1; native channel complex in capacitated donor spermatozoa; with Cation channel sperm-associated auxiliary subunit beta; Cation channel sperm-associated auxiliary subunit gamma; Cation channel sperm-associated auxiliary subunit delta; Cation channel sperm-associated auxiliary subunit epsilon; Cation channel sperm-associated auxiliary subunit zeta

[2] = target: T1, CatSper (cation channel of sperm); assay: fluo4 Ca2+ population fluorimetry in human sperm; conditions: activation, capacitated intact sperm, sEBSS with BSA, whole-cell [Ca2+]i read-out attributed to CatSper
[3] = target: T1, CatSper (cation channel of sperm); assay: whole-cell patch clamp of human sperm, Cs+ CatSper currents; conditions: activation, stable; divalent-free Cs+ solutions, ramps -80 to 80 mV; direct binding to CatSper not tested

COc1ccc(CCCOC(Cn2ccnc2)c2ccc(OC)cc2)cc1 (stereo not shown) [SKF96365]
% current enhancement at 30 μM [1]: 100%
EC50 ([2]; mechanism distinct from progesterone): 9.5 µM

CC(=O)[C@H]1CC[C@H]2[C@@H]3CCC4=CC(=O)CC[C@]4(C)[C@H]3CC[C@]12C [progesterone]
EC50 ([2]; direct binding to CatSper not tested): 0.032 µM
% current increase at 3 μM [3]: 200%
